# Earlier results in patent US20250057962A1, “PROCESSABLE COMPOSITIONS AND USE FOR THE SAME” (Ripple Therapeutics Corporation, priority 2021, published 2025).
# Conditions: given once a day
structure (smiles),measurement,value
CC(C)OC(=O)CCC/C=C\C[C@@H]1[C@@H](CC[C@@H](O)CCc2ccccc2)[C@H](O)C[C@@H]1O [latanoprost],mean IOP lowering,about 35%
